Legend:
Format in all cases: functional
[1] = Antiproliferative activity against human OVCAR3 cells assessed as cell growth at 10^-7 M after 48 hrs by sulforhodamine B assay; details: OVCAR-3, 48 h, read-out: Activity
[2] = system: SN12C; assay: Antiproliferative activity against human SN12C cells assessed as cell growth at 10^-8 M after 48 hrs by sulforhodamine B assay; details: read-out: Activity
[3] = system: K562; assay: Antiproliferative activity against human K562 cells assessed as cell growth at 10^-4 M after 48 hrs by sulforhodamine B assay; details: K562, 48 h, read-out: Activity
[4] = system: K562; assay: Antiproliferative activity against human K562 cells assessed as cell growth at 10^-7 M after 48 hrs by sulforhodamine B assay; details: K562, 48 h, read-out: Activity
[5] = Antiproliferative activity against human DU145 cells assessed as cell growth at 10^-4 M after 48 hrs by sulforhodamine B assay; details: DU-145, 48 h, read-out: Activity
[6] = Antiproliferative activity against human SKOV3 cells assessed as growth inhibition after 48 hrs by sulforhodamine B assay; details: SK-OV-3, 48 h; for CC50: read-out: LC50 (the source's name)
[7] = system: NCI-H23; assay: Antiproliferative activity against human NCI-H23 cells assessed as cell growth at 10^-4 M after 48 hrs by sulforhodamine B assay; details: NCI-H23, 48 h, read-out: Activity
[8] = Antiproliferative activity against human UACC62 cells assessed as cell growth at 10^-8 M after 48 hrs by sulforhodamine B assay; details: UACC-62, 48 h, read-out: Activity
[9] = Antiproliferative activity against human BT549 cells assessed as cell growth at 10^-7 M after 48 hrs by sulforhodamine B assay; details: BT-549, 48 h, read-out: Activity
[10] = system: M14; assay: Antiproliferative activity against human M14 cells assessed as cell growth at 10^-8 M after 48 hrs by sulforhodamine B assay; details: M14, 48 h, read-out: Activity
[11] = Antiproliferative activity against human HOP62 cells assessed as cell growth at 10^-4 M after 48 hrs by sulforhodamine B assay; details: HOP-62, 48 h, read-out: Activity
[12] = system: NCI-H226; assay: Antiproliferative activity against human NCI-H226 cells assessed as cell growth at 10^-4 M after 48 hrs by sulforhodamine B assay; details: NCI-H226, 48 h, read-out: Activity
[13] = Antiproliferative activity against human UACC257 cells assessed as cell growth at 10^-8 M after 48 hrs by sulforhodamine B assay; details: UACC-257, 48 h, read-out: Activity
[14] = system: SK-MEL-2; assay: Antiproliferative activity against human SK-MEL-2 cells assessed as cell growth at 10^-6 M after 48 hrs by sulforhodamine B assay; details: SK-MEL-2, 48 h, read-out: Activity
[15] = Antiproliferative activity against human PC3 cells assessed as growth inhibition after 48 hrs by sulforhodamine B assay; details: PC-3, 48 h
[16] = Antiproliferative activity against human MOLT4 cells assessed as cell growth at 10^-8 M after 48 hrs by sulforhodamine B assay; details: MOLT-4, 48 h, read-out: Activity
[17] = Antiproliferative activity against human MOLT4 cells assessed as cell growth at 10^-7 M after 48 hrs by sulforhodamine B assay; details: MOLT-4, 48 h, read-out: Activity
[18] = Antiproliferative activity against human UACC257 cells assessed as growth inhibition after 48 hrs by sulforhodamine B assay; details: UACC-257, 48 h; for CC50: read-out: LC50 (the source's name)
[19] = Antiproliferative activity against human RXF393 cells assessed as cell growth at 10^-6 M after 48 hrs by sulforhodamine B assay; details: RXF 393, 48 h, read-out: Activity
[20] = Antiproliferative activity against human Hs 578T cells assessed as cell growth at 10^-7 M after 48 hrs by sulforhodamine B assay; details: read-out: Activity
[21] = Antiproliferative activity against human OVCAR3 cells assessed as growth inhibition after 48 hrs by sulforhodamine B assay; details: OVCAR-3, 48 h
[22] = Antiproliferative activity against human HCC2998 cells assessed as cell growth at 10^-4 M after 48 hrs by sulforhodamine B assay; details: HCC 2998, 48 h, read-out: Activity
[23] = system: NCI-H460; assay: Antiproliferative activity against human NCI-H460 cells assessed as cell growth at 10^-8 M after 48 hrs by sulforhodamine B assay; details: NCI-H460, 48 h, read-out: Activity
[24] = system: NCI-H460; assay: Antiproliferative activity against human NCI-H460 cells assessed as growth inhibition after 48 hrs by sulforhodamine B assay; details: NCI-H460, 48 h
[25] = Antiproliferative activity against human SF295 cells assessed as growth inhibition after 48 hrs by sulforhodamine B assay; details: SF-295, 48 h; for CC50: read-out: LC50 (the source's name)
[26] = system: T47D; assay: Antiproliferative activity against human T47D cells assessed as cell growth at 10^-8 M after 48 hrs by sulforhodamine B assay; details: read-out: Activity
[27] = system: SR; assay: Antiproliferative activity against human SR cells assessed as cell growth at 10^-4 M after 48 hrs by sulforhodamine B assay; details: read-out: Activity
[28] = Antiproliferative activity against human LOXIMVI cells assessed as cell growth at 10^-7 M after 48 hrs by sulforhodamine B assay; details: LOX IMVI, read-out: Activity
[29] = Antiproliferative activity against human LOXIMVI cells assessed as cell growth at 10^-4 M after 48 hrs by sulforhodamine B assay; details: LOX IMVI, read-out: Activity
[30] = system: A498; assay: Antiproliferative activity against human A498 cells assessed as cell growth at 10^-8 M after 48 hrs by sulforhodamine B assay; details: A498, 48 h, read-out: Activity
[31] = system: NCI-H522; assay: Antiproliferative activity against human NCI-H522 cells assessed as cell growth at 10^-7 M after 48 hrs by sulforhodamine B assay; details: NCI-H522, 48 h, read-out: Activity
[32] = Antiproliferative activity against human HOP92 cells assessed as growth inhibition after 48 hrs by sulforhodamine B assay; details: HOP-92, 48 h
[33] = Antiproliferative activity against human RXF393 cells assessed as cell growth at 10^-4 M after 48 hrs by sulforhodamine B assay; details: RXF 393, 48 h, read-out: Activity
[34] = system: NCI-H522; assay: Antiproliferative activity against human NCI-H522 cells assessed as cell growth at 10^-6 M after 48 hrs by sulforhodamine B assay; details: NCI-H522, 48 h, read-out: Activity
[35] = Antiproliferative activity against human NCI-ADR-RES cells assessed as cell growth at 10^-6 M after 48 hrs by sulforhodamine B assay; details: read-out: Activity
[36] = system: SR; assay: Antiproliferative activity against human SR cells assessed as cell growth at 10^-8 M after 48 hrs by sulforhodamine B assay; details: read-out: Activity
[37] = system: Malme-3M; assay: Antiproliferative activity against human MALME-3M cells assessed as cell growth at 10^-8 M after 48 hrs by sulforhodamine B assay; details: read-out: Activity

## CNC(=O)c1cc(Oc2ccc3nc(NC(=O)Nc4ccc(Cl)c(C(F)(F)F)c4)sc3c2)ccn1
[1]
  growth at 0.1 µM: 111%
[2]
  growth at 0.01 µM: 97%
[3]
  growth at 100 µM: 59%
[4]
  growth at 0.1 µM: 104%
[5]
  growth at 100 µM: 17%
[6]
  GI50: 1.89 µM
  TGI: 4.21 µM
  CC50: 9.39 µM
[7]
  growth at 100 µM: -40%
[8]
  growth at 0.01 µM: 95%
[9]
  growth at 0.1 µM: 100%
[10]
  growth at 0.01 µM: 90%
[11]
  growth at 100 µM: -34%
[12]
  growth at 100 µM: -25%
[13]
  growth at 0.01 µM: 102%
[14]
  growth at 1 µM: 89%
[15]
  GI50: 1.42 µM
[16]
  growth at 0.01 µM: 106%
[17]
  growth at 0.1 µM: 105%
[18]
  GI50: 3.37 µM
  TGI: > 100 µM
  CC50: > 100 µM
[19]
  growth at 1 µM: 88%
[20]
  growth at 0.1 µM: 89%
[21]
  GI50: 2.11 µM
  TGI: 4.02 µM
[22]
  growth at 100 µM: 66%
[23]
  growth at 0.01 µM: 106%
[24]
  GI50: 1.79 µM
[25]
  GI50: 1.79 µM
  TGI: 3.71 µM
  CC50: 7.66 µM
[26]
  growth at 0.01 µM: 90%
[27]
  growth at 100 µM: -11%
[28]
  growth at 0.1 µM: 102%
[29]
  growth at 100 µM: 11%
[30]
  growth at 0.01 µM: 95%
[31]
  growth at 0.1 µM: 95%
[32]
  GI50: 1.15 µM
  LC50: 9.12 µM
  TGI: 3.24 µM
[33]
  growth at 100 µM: -78%
[34]
  growth at 1 µM: 80%
[35]
  growth at 1 µM: 94%
[36]
  growth at 0.01 µM: 110%
[37]
  growth at 0.01 µM: 104%

## CNC(=O)c1cc(Oc2ccc3nc(NC(=O)Nc4ccc(Cl)c(Cl)c4)sc3c2)ccn1
[1]
  growth at 0.1 µM: 102%
[2]
  growth at 0.01 µM: 102%
[3]
  growth at 100 µM: 53%
[4]
  growth at 0.1 µM: 98%
[5]
  growth at 100 µM: -34%
[6]
  GI50: 2.24 µM
  TGI: 4.09 µM
  CC50: 7.45 µM
[7]
  growth at 100 µM: 6%
[8]
  growth at 0.01 µM: 98%
[9]
  growth at 0.1 µM: 104%
[10]
  growth at 0.01 µM: 93%
[11]
  growth at 100 µM: -85%
[12]
  growth at 100 µM: -59%
[13]
  growth at 0.01 µM: 92%
[14]
  growth at 1 µM: 105%
[15]
  GI50: 1.95 µM
  TGI: 4.33 µM
[16]
  growth at 0.01 µM: 92%
[17]
  growth at 0.1 µM: 96%
[18]
  GI50: 2.25 µM
  CC50: > 100 µM
[19]
  growth at 1 µM: 94%
[20]
  growth at 0.1 µM: 108%
[21]
  GI50: 2.3 µM
  LC50: > 100 µM
  TGI: 5.38 µM
[22]
  growth at 100 µM: 37%
[23]
  growth at 0.01 µM: 104%
[24]
  GI50: 2.43 µM
  LC50 (concentration killing 50% of cells): > 100 µM
  TGI: 5.32 µM
[25]
  GI50: 1.53 µM
  TGI: 3.13 µM
  CC50: 6.41 µM
[26]
  growth at 0.01 µM: 102%
[27]
  growth at 100 µM: 50%
[28]
  growth at 0.1 µM: 93%
[29]
  growth at 100 µM: -62%
[30]
  growth at 0.01 µM: 101%
[31]
  growth at 0.1 µM: 100%
[32]
  GI50: 2.66 µM
  LC50: 18.8 µM
  TGI: 5.39 µM
[33]
  growth at 100 µM: -85%
[34]
  growth at 1 µM: 97%
[35]
  growth at 1 µM: 103%
[36]
  growth at 0.01 µM: 108%
[37]
  growth at 0.01 µM: 97%

Source: ChEMBL document CHEMBL3797052 (Eur J Med Chem, 2016)
